Data reported in patent US7556930B2, “CD39L3 and its role in diabetes” (Metabolex Inc., priority 2005, dated 2009).
Like-named read-outs stand apart in the source and are kept apart here. Each block holds one compound with its values, some of them ahead of it.

Key:
[1] = target: T1, full length human CD39L3 (Homo sapiens, UniProt O75355, A496V); test: Piper Phosphate Assay of CD39L3 nucleotide hydrolysis activity in transiently transfected HEK293 cells; format: biochemical
T1 construct: Cells were transiently transfected with the full length human CD39L3 clone; expressed in transfected cells; host or cells: HEK293 cells, transiently transfected; frozen and thawed intact cells
T1 sequence (O75355 1-529 A496V): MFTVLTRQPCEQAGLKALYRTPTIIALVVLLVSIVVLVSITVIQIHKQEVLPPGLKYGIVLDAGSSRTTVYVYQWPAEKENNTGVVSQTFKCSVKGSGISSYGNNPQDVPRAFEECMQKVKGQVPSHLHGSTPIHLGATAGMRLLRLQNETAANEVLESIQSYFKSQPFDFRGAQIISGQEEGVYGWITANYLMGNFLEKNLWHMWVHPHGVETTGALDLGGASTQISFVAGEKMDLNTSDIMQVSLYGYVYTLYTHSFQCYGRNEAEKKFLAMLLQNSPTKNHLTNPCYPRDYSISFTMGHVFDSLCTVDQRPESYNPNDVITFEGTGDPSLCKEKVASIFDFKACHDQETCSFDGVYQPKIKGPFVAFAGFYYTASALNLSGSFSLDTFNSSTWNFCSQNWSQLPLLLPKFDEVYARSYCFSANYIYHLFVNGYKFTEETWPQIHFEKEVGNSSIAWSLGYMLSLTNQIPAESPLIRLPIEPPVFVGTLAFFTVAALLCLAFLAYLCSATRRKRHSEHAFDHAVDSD
Protocol: (§1) FIG. 4 illustrates the Km of ATP determined for full length human CD39L3 in transiently transfected HEK293 cells. The Km of ATP values determined under two concentrations of each cation source: CaCl2 and MgCl2. […] Activity assays were performed with the Piper Phosphate Assay (Molecular Probes).
(§2) FIG. 5 illustrates the Km of ADP determined for full length human CD39L3 in transiently transfected HEK293 cells. The Km of ADP values determined under two concentrations of each cation source: CaCl2 and MgCl2. […] Activity assays were performed with the Piper Phosphate Assay (Invitrogen).
(§3) FIG. 6 illustrates the inhibition of CD39L3 examined with the general ectoATPase inhibitor, ARL 67156. HEK293 cells were transiently transfected with full length human CD39L3. […] Activity assays were performed with the Piper Phosphate Assay (Molecular Probes).
(§4) As the activity of CD39L3 involves the hydrolysis of nucleoside triphosphates and diphosphates, Molecular Probes' Piper Phosphate Assay Kit™, which is an assay that detects free phosphate, a product of the hydrolysis, was used.
(§5) Cells were transiently transfected with the full length human CD39L3 clone were measured for nucleotide hydrolysis activity in suspension or adhered to the plate, within an isotonic buffer including the required cation cofactor, calcium or magnesium. Batches of transiently transfected CD39L3 cells were produced and frozen until use.
(§6) Using cells that were frozen and thawed, the Piper Phosphate Assay was used to determine the Km of ATP and ADP for the full length human CD39L3 clone (FIGS. 4 and 5). In addition, to validate the detection of an inhibitor with this assay format, a general ectoATPase inhibitor, ARL 67156, was examined.

[2] = target: T2, full length human CD39L3 (Homo sapiens, UniProt O75355); test: as above; format: biochemical; conditions: HEK293 cells transiently transfected with full length human CD39L3, read-out: IC50, inhibition of CD39L3
T2 construct: Cells were transiently transfected with the full length human CD39L3 clone; expressed in transfected cells; host or cells: HEK293 cells, transiently transfected; frozen and thawed intact cells
T2 sequence (O75355 1-529 A496V): T1 sequence (O75355 1-529 A496V)
Protocol: as §1, §2, §3, §4, §5, §6

- Km ([1]; 1 mM CaCl2, read-out: Km of ADP): 42 µM
- Km ([1]; 1 mM MgCl2, read-out: Km of ADP): 35 µM
- Km ([1]; 5 mM CaCl2, read-out: Km of ADP): 39 µM
- Km ([1]; 5 mM MgCl2, read-out: Km of ADP): 44 µM
SMILES: Nc1ncnc2c1ncn2[C@@H]1O[C@H](COP(=O)(O)OP(=O)(O)O)[C@@H](O)[C@H]1O [ADP]

SMILES: CCN(CC)c1ncnc2c1ncn2[C@@H]1O[C@H](COP(=O)(O)OP(=O)(O)C(Br)(Br)P(=O)(O)O)[C@@H](O)[C@H]1O [ARL 67156]
- IC50 ([2]; 40 uM ADP+5 mM CaCl2): 59 µM
- IC50 ([2]; 40 uM ADP+5 mM MgCl2): 57 µM
- IC50 ([2]; 65 μM ATP+5 mM CaCl2): 49 µM
- IC50 ([2]; 65 uM ATP+5 mM MgCl2): 59 µM

- Km ([1]; 1 mM CaCl2, read-out: Km of ATP): 105 µM
- Km ([1]; 1 mM MgCl2, read-out: Km of ATP): 60 µM
- Km ([1]; 5 mM CaCl2, read-out: Km of ATP): 85 µM
- Km ([1]; 5 mM MgCl2, read-out: Km of ATP): 52 µM
SMILES: Nc1ncnc2c1ncn2[C@@H]1O[C@H](COP(=O)(O)OP(=O)(O)OP(=O)(O)O)[C@@H](O)[C@H]1O [ATP]
